Laboratory results published in ChEMBL document CHEMBL3430912, “GSK Tres Cantos Anti-Kinetoplastid Screening (TCAKS) Data”.

What was measured:
[1] = tested on: NIH3T3; assay: GSK_TCAKS: pIC50 NIH 3T3 cell line viability assay using luminiscence. Tissue culture surface treated assay plates (1536-well) were used. […] The 100% cells survival control was determined exposing the host-cells to a 0.5% DMSO concentration, whereas the 100% toxicity control was achieved by seeding the cells in presence of Amphotericin B at 50uM. Plates were incubated for four days at 37C, 5% CO2. The assay readout was developed by addition of 5uL of CellTiter-Glo Reagent following the manufacturer's instructions. Luminiscence was measured using a ViewLux.; assay type: functional, cell-based; details: Mus musculus, NIH3T3, 96 h
[2] = tested on: Trypanosoma brucei brucei; assay: GSK_TCAKS: pIC50 Trypanosoma brucei viability assay using fluorescence intensity. Assay plates (1536-well) were prepared by dispensing 25nL of compound solution per well using an Echo acoustic dispenser (Labcyte).; assay type: functional, organism-based; details: Lister 427, 2 h
[3] = tested on: Trypanosoma cruzi; assay: (§1) GSK_TCAKS: pIC50 Trypanosoma cruzi Imaging: Infected Cells. […] Cells were then washed once with PBS before infection. T. cruzi trypomastigotes, collected at days 5 to 8 after infection from LLC-MK2 parasite infected cultures, were allowed to swim out for 4h at 37C from a centrifuged pellet (2,500 rpm/10 min/room temperature). Trypomastigotes were then collected and counted in a CASY Cell Counter. Trypomastigotes, in supplemented DMEM, were added to H9c2 cultures in a multiplicity of infection of 1 and incubated for 18 h. Cells were washed once with PBS before incubation of the infected H9c2 monolayer with trypsin (Life-Technologies) to detach cells from the flask. Cells were counted in a CASY Cell Counter using a 150 um capillary and their density set at 5 * 10^4 cells per mL in supplemented assay DMEM. Infected H9c2 were dispensed into 384-well poly-lysine coated assay plates at 50uL per well using a Multidrop Combi dispenser. After seeding them, the plates were incubated at 37C, 5% CO2 for 72h. Cultures were then fixed and stained by addition of 50 uL of a solution containing 8% formaldehyde and 4 uM DRAQ5 DNA dye (BioStatus, UK) per well. […] Five images were collected per well for reliable statistical analysis. Automated image analysis was performed with a script developed on Acapella High Content Imaging and Analysis Software (PerkinElmer). Output: percentage of infected cells per well as a second infection marker.; assay type: functional, organism-based, Rattus norvegicus; details: H9c2, 4 h
[4] = GSK_TCAKS: pIC50 HepG2 human cell line viability assay using luminiscence. […] Seeding density was checked to ensure that new mono-layers were not more than 50% confluent at the time of harvesting. Cell suspension was added to 500 mL of the same medium at a final density of 1.2 * 10^5 cells/mL. This cell suspension was dispensed (25 uL, 3000 cells per well) into 384-well clear-bottom plates using a Multidrop Combi dispenser. Prior to addition of the cell suspension, the screening compounds (250 nL) were pre-dispensed into the plates with an Echo liquid handler. Plates were incubated for 48 h at 37C, 5% CO2. After incubation, plates equilibrated at room temperature for 30 min before proceeding to develop the luminescent signal. The signal developer, CellTiter-Glo Reagent, was allowed to equilibrate at room temperature for 30 min and added to the plates (25uL per well) using a Multidrop Combi dispenser. Plates were left for 10 min at room temperature for stabilization and then read using a ViewLux.; assay type: toxicity, cell-based
[5] = tested on: Trypanosoma cruzi; assay: as §1, with “H2C9” for “Trypanosoma cruzi”, “H9c2 Host Cardiomyocytes.” for “Infected Cells.”, “Number” for “percentage”, “H9c2 Host Cardiomyocytes nuclei to determine drug-related cytotoxicity.” for “infected cells per well as a second infection marker.”; assay type: functional, organism-based, Rattus norvegicus; details: H9c2, 4 h
[6] = tested on: Leishmania donovani; assay: (§2) GSK_TCAKS: pIC50 Leishmania donovani Imaging: Infected Macrophages. Assay plates (384-well) were prepared by adding 250nL of compound to each well. For single shot assay, the final compound concentration was 5 uM. […] Automated image analysis was performed with a script developed on Acapella High Content Imaging and Analysis Software (PerkinElmer). Output: Percent of infected macrophage cells were reported for each well.; assay type: functional, organism-based, Homo sapiens; details: THP-1
[7] = tested on: Leishmania donovani; assay: as §2, with “Amastigotes/Macrophages.” for “Infected Macrophages.”, “Average number” for “Percent”, “amastigotes per” for “infected”, “cell” for “cells”; assay type: functional, organism-based, Homo sapiens; details: THP-1
[8] = tested on: Trypanosoma cruzi; assay: GSK_TCAKS: pIC50 Trypanosoma cruzi Imaging: Amastigotes/Cell. […] Cells were then washed once with PBS before infection. T. cruzi trypomastigotes, collected at days 5 to 8 after infection from LLC-MK2 parasite infected cultures, were allowed to swim out for 4h at 37C from a centrifuged pellet (2,500 rpm/10 min/room temperature). Trypomastigotes were then collected and counted in a CASY Cell Counter. Trypomastigotes, in supplemented DMEM, were added to H9c2 cultures in a multiplicity of infection of 1 and incubated for 18 h. Cells were washed once with PBS before incubation of the infected H9c2 monolayer with trypsin (Life-Technologies) to detach cells from the flask. Cells were counted in a CASY Cell Counter using a 150 um capillary and their density set at 5 * 10^4 cells per mL in supplemented assay DMEM. Infected H9c2 were dispensed into 384-well poly-lysine coated assay plates at 50uL per well using a Multidrop Combi dispenser. After seeding them, the plates were incubated at 37C, 5% CO2 for 72h. Cultures were then fixed and stained by addition of 50 uL of a solution containing 8% formaldehyde and 4 uM DRAQ5 DNA dye (BioStatus, UK) per well. […] Five images were collected per well for reliable statistical analysis. Automated image analysis was performed with a script developed on Acapella High Content Imaging and Analysis Software (PerkinElmer). Output: number of amastigotes per cell as infection level measurement.; assay type: functional, organism-based, Rattus norvegicus; details: H9c2, 4 h
[9] = tested on: Leishmania donovani; assay: GSK_TCAKS: pIC50 Leishmania donovani viability assay using fluorescence intensity. Assay plates (1536-well) were prepared by adding 30nL per well of compound. For single shot assay, the final compound concentration was 5uM. […] Briefly, eGFP LdBOB axenic amastigotes were harvested, fixed and counted in a CASY cell counter (Roche-Applied Science). A final concentration of 1.5 * 10^5 cells per well were prepared in amastigote media containing 500 U/mL penicillin/streptomycin (Invitrogen) and 6uL was dispensed to each experimental well using a Multidrop Combi dispenser (Thermo Scientific). 6uL of assay media was dispensed to control columns used as reference for 100% compound response. Following incubation for 72 h at 37C, 5% CO2, 2 uL of resazurin was added to each well at a final concentration of 0.5 mM in phosphate buffered saline (PBS) with IGEPAL (Sigma-Aldrich), 0.05% (v/v).; assay type: functional, organism-based
[10] = target: Sterol 14-alpha demethylase (Trypanosoma cruzi (strain CL Brener), UniProt Q7Z1V1); assay: GSK_TCAKS: pIC50 CYP51 from Trypanosoma cruzi.; assay type: functional
Chain of Sterol 14-alpha demethylase (Q7Z1V1 whole entry): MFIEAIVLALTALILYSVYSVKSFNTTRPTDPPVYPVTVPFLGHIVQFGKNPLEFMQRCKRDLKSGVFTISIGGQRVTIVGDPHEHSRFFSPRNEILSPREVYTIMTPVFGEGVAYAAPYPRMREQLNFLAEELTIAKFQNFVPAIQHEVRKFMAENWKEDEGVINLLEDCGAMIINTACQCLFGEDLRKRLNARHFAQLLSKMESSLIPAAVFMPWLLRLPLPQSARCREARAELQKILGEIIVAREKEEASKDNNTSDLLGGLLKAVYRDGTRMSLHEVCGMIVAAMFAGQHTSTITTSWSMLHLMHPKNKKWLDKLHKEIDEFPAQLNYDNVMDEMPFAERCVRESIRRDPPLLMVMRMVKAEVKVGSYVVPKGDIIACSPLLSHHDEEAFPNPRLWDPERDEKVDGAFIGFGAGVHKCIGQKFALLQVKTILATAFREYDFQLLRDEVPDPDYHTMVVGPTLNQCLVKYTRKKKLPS

[11] = tested on: Leishmania donovani; assay: as §2, with “THP-1 Host” for “Infected”, “THP-1 cell count” for “Percent of infected macrophage cells”; assay type: functional, organism-based, Homo sapiens
[12] = tested on: Trypanosoma brucei brucei; assay: GSK_TCAKS: pIC50 Trypanosoma brucei viability assay using luminiscence. Assay plates (1536-well) were prepared. T. brucei cultures were harvested and counted in a CASY cell counter. A parasite suspension was prepared at a final concentration of 5 * 10^4 cells/mL in complete HMI9 medium and 6uL was dispensed to all wells containing compounds using a Multidrop Combi dispenser. 6uL of HMI9 media with 0.4% DMSO were dispensed to control columns. Plates were incubated for 24 h at 37C, 5% CO2 then tempered for 10 min at room temperature. ATP content was quantified by adding 4 uL of CellTiter-Glo Reagent (Promega) according to the manufacturer's instructions. Luminescence was measured using a ViewLux.; assay type: functional, organism-based; details: Lister 427, CASY
[13] = tested on: Trypanosoma cruzi; assay: GSK_TCAKS: pIC50 Trypanosoma cruzi viability assay using beta-GAL activity. This assay was run at single shot at 5uM compound concentration per well. The biological reagents consisted of NIH-3T3 host cells and trypomastigotes parasitic cells; both cell types were set to a 3.3 * 10^5 cells/mL dilution in assay DMEM by means of a CASY cell counter device using a 60um capillary. 6 uL of the mixture were dispensed per well (about 1 * 10^3 host-cells and 1 * 10^3 parasites) with a Multidrop Combi dispenser. […] In all wells, the percentage of DMSO never exceeded 0.5%. Plates incubated for four days at 37C, 5% CO2. The substrate used for the assay fluorescence intensity (FLINT) readout was resorufin-beta-D-galactopiranoside (Sigma-Aldrich) at 5uM per well. It was diluted in PBS supplemented with the soft detergent Igepal (Fluka).; assay type: functional, organism-based, Mus musculus; details: Tulahuen, NIH3T3

SMILES	IC50 [1] [µM]	IC50 [2] [µM]	IC50 [3] [µM]	IC50 at 48 h [4] [µM]	IC50 [5] [µM]	IC50 [6] [µM]	IC50 [7] [µM]	IC50 [8] [µM]	IC50 [9] [µM]	IC50 [10] [µM]	IC50 [11] [µM]	IC50 [12] [µM]	IC50 [13] [µM]
CC(C)(C)C(Cn1ccnc1)NC(=O)c1ccc2nc(C3CC3)oc2c1 (stereo not given)	> 50.1	> 39.8	0.1	> 100	> 50.1	> 50.1	> 50.1	0.0794	20	0.1	15.8	> 39.8	0.1
O=C(NCC(c1cccnc1)N1CCc2ccccc2C1)C(=O)Nc1cccc(Cl)c1 (stereo not given)	25.1	15.8	0.0794	> 100	25.1	> 50.1	> 50.1	0.0631	1.26	0.0631	> 50.1	20	0.2
Cc1n[nH]c2c1C(c1ccc(OCc3ccccc3F)cc1)SCC(=O)N2 (stereo not given)	> 50.1	25.1	3.16	> 100	> 50.1	> 50.1	> 50.1	0.794	39.8	> 100	> 50.1	> 39.8	2
CCCN(Cc1ccc(OC)c(OC)c1)Cc1cc(=O)c2c(C)cc(C)cc2[nH]1	31.6	25.1	2	63.1	> 50.1	25.1	20	0.501	20	> 100	5.01	> 39.8	2
CCC1Oc2cc(S(=O)(=O)N(C)CC(=O)N3CCc4ccccc4C3)c(C)cc2NC1=O (stereo not given)	> 50.1	25.1	0.251	> 100	> 50.1	> 50.1	31.6	0.251	> 50.1	0.794	> 50.1	31.6	0.2
Cc1nc(N2CCC(C(=O)N3CCC(O)(c4cccnc4)CC3)CC2)nc2ccc(C(C)C)cc12	25.1	20	0.316	79.4	39.8	50.1	10	0.398	> 50.1	0.126	25.1	31.6	1.58
CN(Cc1ccc(F)cc1)c1ccc(OCC(=O)N2CCCCC2c2cccnc2)nn1 (stereo not given)	10	> 39.8	0.398	> 100	> 50.1	> 50.1	> 50.1	0.398	15.8	0.0501	31.6	> 39.8	0.316
Cc1ccc(NC(=O)C(C)n2nc([N+](=O)[O-])c(Br)c2C)cc1Cl (stereo not given)	12.6	15.8	6.31	79.4	> 50.1	> 50.1	> 50.1	3.16	> 50.1	> 100	> 50.1	> 39.8	2.51
c1ccc(CCNCc2cncc3nc(-c4cnccn4)n(C4CCCCC4)c23)cc1	6.31	31.6	0.126	> 100	> 50.1	> 50.1	> 50.1	0.126	> 50.1	0.1	> 50.1	> 39.8	0.316
CN(Cc1nc2ccccc2s1)C(=O)C=Cc1cc2ccccc2o1	31.6	31.6	0.794	> 100	> 50.1	> 50.1	15.8	1	50.1	0.158	> 50.1	> 39.8	0.631
CC(=O)Nc1ccc(-c2noc(CC3CCCN(Cc4cccc(F)c4C)C3)n2)cc1 (stereo not given)	25.1	20	2	> 100	31.6	31.6	12.6	1.26	39.8	> 100	> 50.1	25.1	1
N#Cc1ccc(S(=O)(=O)N2CCC3(CCN(c4ccccc4)C3=O)CC2)cc1	> 50.1	> 39.8	1	> 100	> 50.1	> 50.1	> 50.1	0.631	> 50.1	> 100	> 50.1	> 39.8	1.26
Cc1cccc(NS(=O)(=O)c2cnc3sc(C)cn3c2=O)c1	> 50.1	> 39.8	2	> 100	6.31	> 50.1	5.01	1	> 50.1	> 100	> 50.1	> 39.8	1.26
O=C(N1CCc2ccccc2CC1)C1(C(=O)N2CCC(n3c(=O)[nH]c4ncccc43)CC2)CC1	39.8	> 39.8	0.794	> 100	> 50.1	> 50.1	> 50.1	0.631	> 50.1	0.316	> 50.1	> 39.8	0.631
COc1ccc2ncc(=O)n(CCN3CCOC(CNCc4ccc(C(F)(F)F)cc4F)C3)c2n1 (stereo not given)	3.98	0.631	1.58	> 100	> 50.1	> 50.1	> 50.1	0.631	39.8	10	> 50.1	2.51	0.398
